The source of these data is US10294219B2 (priority 2015, dated 2019).

The conditions of data set [1]: data from US20130324496A1, cited from earlier work.
A short description of data set [2]: Light stability assessment (LS-3000 light test chamber, HPLC purity after illumination). In kind it is physicochemical. The conditions noted are these: 1.2 million lux·hours of illumination, 4400 lux for 12 days, layer no more than 1 mm. From the text: Samples of different crystal forms were placed in a watch glass and spread to a thin layer with thickness of no more than 1 mm, placed in a LS-3000 light test chamber with a light intensity of 4400 lux for 12 days.
(2) The purity of the sample after illumination was checked by HPLC and compared with the initial purity.

Data set [3] is described as follows: Changes of crystal form at different temperatures. The class given is physicochemical.
A short description of data set [4]: Solvent-based screening of crystal form changes. The class given is physicochemical.
Setting [5] is: 100 mg suspended in 200 μL Ethyl acetate.
Setting [6] is: 100 mg suspended in 200 μL MTBE.

SMILES strings stand for the structures. Read-outs that look alike come from different tables or passages of the source.

Turning to `COC(=O)N[C@H](C(=O)N1CC2(CC2)C[C@H]1c1ncc(-c2ccc3c(c2)C(F)(F)c2cc(-c4ccc5nc([C@@H]6[C@H]7CC[C@H](C7)N6C(=O)[C@@H](NC(=O)OC)C(C)C)[nH]c5c4)ccc2-3)[nH]1)C(C)C` [Ledipasvir amorphous, Ledipasvir], the “HPLC purity decreased, %” value in data set [1] (1.2 million lux·hours) was 8.3%.
On to `COC(=O)N[C@H](C(=O)N1CC2(CC2)C[C@H]1c1ncc(-c2ccc3c(c2)C(F)(F)c2cc(-c4ccc5nc([C@@H]6[C@H]7CC[C@H](C7)N6C(=O)[C@@H](NC(=O)OC)C(C)C)[nH]c5c4)ccc2-3)[nH]1)C(C)C` [Ledipasvir diacetone solvate], for which the “HPLC purity decreased, %” value in data set [1] (1.2 million lux·hours) was 6.3%.
With `COC(=O)N[C@H](C(=O)N1CC2(CC2)C[C@H]1c1ncc(-c2ccc3c(c2)C(F)(F)c2cc(-c4ccc5nc([C@@H]6[C@H]7CC[C@H](C7)N6C(=O)[C@@H](NC(=O)OC)C(C)C)[nH]c5c4)ccc2-3)[nH]1)C(C)C` [crystal form A of Ledipasvir, LDV-acetonitrile-MTBE ternary solvate], the “HPLC purity decreased, %” value in data set [2], in data set [2] (listed as LDV-acetonitrile-MTBE ternary solvate) and in data set [2] (listed as Ledipasvir crystal form A) was 2.0% each time. Moreover, the “Crystal Form” value in data set [3] (120° C., nitrogen protection) is recorded as “crystal form C”; in data set [3] (120° C., nitrogen protection, listed as crystal form A), “crystal form C”; in data set [3] (180° C., nitrogen protection), “amorphous form”; in data set [3] (Room temperature), “crystal form A”. The “Solvent-based screening result (change of crystal form)” value in data set [4] (100 mg suspended in 200 μL ACN) is “crystal form D”; in data set [4] (setting [5]) it was “solution”; in data set [4] (setting [6]) it was “amorphous form”.
For the molecule `COC(=O)N[C@H](C(=O)N1CC2(CC2)C[C@H]1c1ncc(-c2ccc3c(c2)C(F)(F)c2cc(-c4ccc5nc([C@@H]6[C@H]7CC[C@H](C7)N6C(=O)[C@@H](NC(=O)OC)C(C)C)[nH]c5c4)ccc2-3)[nH]1)C(C)C` [crystal form B of Ledipasvir, LDV-acetone-MTBE ternary solvate], the “HPLC purity decreased, %” value in data set [2], in data set [2] (listed as LDV-acetone-MTBE ternary solvate) and in data set [2] (listed as Ledipasvir crystal form B) was 0.6% each time. In addition, the “Crystal Form” value in data set [3] (120° C., nitrogen protection) is given as “crystal form E”; in data set [3] (120° C., nitrogen protection, listed as crystal form B), “crystal form E”; in data set [3] (180° C., nitrogen protection), “amorphous form”; in data set [3] (Room temperature), “crystal form B”. In addition, the figures for the “Solvent-based screening result (change of crystal form)” value in data set [4] (100 mg suspended in 200 μL ACN), in data set [4] (setting [5]) and in data set [4] (setting [6]) were “crystal form D”, “solution” and “amorphous form”, respectively.
As to `COC(=O)N[C@H](C(=O)N1CC2(CC2)C[C@H]1c1ncc(-c2ccc3c(c2)C(F)(F)c2cc(-c4ccc5nc([C@@H]6[C@H]7CC[C@H](C7)N6C(=O)[C@@H](NC(=O)OC)C(C)C)[nH]c5c4)ccc2-3)[nH]1)C(C)C` [crystal form I of Ledipasvir], in data set [1] (900,000 lux·hours), the “HPLC purity decreased, %” value is given as 6.6%.
On to `COC(=O)N[C@H](C(=O)N1CC2(CC2)C[C@H]1c1ncc(-c2ccc3c(c2)C(F)(F)c2cc(-c4ccc5nc([C@@H]6[C@H]7CC[C@H](C7)N6C(=O)[C@@H](NC(=O)OC)C(C)C)[nH]c5c4)ccc2-3)[nH]1)C(C)C` [crystal form II of Ledipasvir], for which, in data set [1] (1.2 million lux·hours), the “HPLC purity decreased, %” value is 6.3%.
With `COC(=O)N[C@H](C(=O)N1CC2(CC2)C[C@H]1c1ncc(-c2ccc3c(c2)C(F)(F)c2cc(-c4ccc5nc([C@@H]6[C@H]7CC[C@H](C7)N6C(=O)[C@@H](NC(=O)OC)C(C)C)[nH]c5c4)ccc2-3)[nH]1)C(C)C` [monoacetone solvate], the “HPLC purity decreased, %” value in data set [1] (1.2 million lux·hours) was 6.3%.
